PubChem BioAssay (NCI)
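Test compounds were applied to cells in 96-well plates for 48 hours at 5 doses. GI50: concentration for 50% inhibition of growth. TGI marks complete inhibition of growth.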

How the values were obtained:
Test in all cases: inhibition of tumour cell growth, NCI panel, 48 h
MOLT-4 leukemia = system: MOLT-4 leukemia
COLO 205 colon = system: COLO 205 colon
CCRF-CEM leukemia = system: CCRF-CEM leukemia
SK-MEL-2 melanoma = system: SK-MEL-2 melanoma
ACHN renal = system: ACHN renal
SW-620 colon = system: SW-620 colon
OVCAR-5 ovarian = system: OVCAR-5 ovarian
UACC-257 melanoma = system: UACC-257 melanoma
NCI-H522 lung = system: NCI-H522 lung
HCC-2998 colon = system: HCC-2998 colon
BT-549 breast = system: BT-549 breast
NCI-H23 lung = system: NCI-H23 lung
HOP-62 NSCLC = system: HOP-62 NSCLC
HCT-15 colon = system: HCT-15 colon
SR leukemia = system: SR leukemia
K-562 leukemia = system: K-562 leukemia
SK-MEL-5 melanoma = system: SK-MEL-5 melanoma
MCF7 breast = system: MCF7 breast
U251 CNS = system: U251 CNS
UO-31 renal = system: UO-31 renal
M14 melanoma = system: M14 melanoma
SK-OV-3 ovarian = system: SK-OV-3 ovarian
HCT-116 colon = system: HCT-116 colon
SN12C renal = system: SN12C renal
A549 NSCLC = system: A549 NSCLC
SK-MEL-28 melanoma = system: SK-MEL-28 melanoma
SF-539 CNS = system: SF-539 CNS
MDA-MB-468 breast = system: MDA-MB-468 breast
SF-268 CNS = system: SF-268 CNS
SNB-19 CNS = system: SNB-19 CNS
MALME-3M melanoma = system: MALME-3M melanoma
HS 578T breast = system: HS 578T breast
NCI-H226 lung = system: NCI-H226 lung
MDA-MB-231 breast = system: MDA-MB-231 breast
RPMI-8226 leukemia = system: RPMI-8226 leukemia
IGROV1 ovarian = system: IGROV1 ovarian
HOP-92 NSCLC = system: HOP-92 NSCLC
LOX IMVI melanoma = system: LOX IMVI melanoma
SNB-75 CNS = system: SNB-75 CNS
T-47D breast = system: T-47D breast
SF-295 CNS = system: SF-295 CNS
RXF 393 renal = system: RXF 393 renal
KM12 colon = system: KM12 colon
EKVX NSCLC = system: EKVX NSCLC
HT29 colon = system: HT29 colon
NCI-H460 lung = system: NCI-H460 lung
MDA-MB-435 = system: MDA-MB-435
A498 renal = system: A498 renal
CAKI-1 renal = system: CAKI-1 renal
OVCAR-3 ovarian = system: OVCAR-3 ovarian
OVCAR-8 ovarian = system: OVCAR-8 ovarian
NCI/ADR-RES ovarian = system: NCI/ADR-RES ovarian
TK-10 renal = system: TK-10 renal
UACC-62 melanoma = system: UACC-62 melanoma
DU-145 prostate = system: DU-145 prostate
PC-3 prostate = system: PC-3 prostate
OVCAR-4 ovarian = system: OVCAR-4 ovarian
HL-60(TB) leukemia = system: HL-60(TB) leukemia
786-0 renal = system: 786-0 renal

Which results are given for `O=C(N/N=C/c1ccc(-c2ccc(O)cc2)o1)c1[nH]c2ccc(Br)cc2c1-c1ccccc1`?
GI50 (MOLT-4 leukemia): 0.531 µM; TGI (MOLT-4 leukemia): 5.04 µM; GI50 (COLO 205 colon): 1.9 µM; TGI (COLO 205 colon): 3.93 µM; GI50 (CCRF-CEM leukemia): 0.474 µM; TGI (CCRF-CEM leukemia): 26.9 µM; GI50 (SK-MEL-2 melanoma): 0.378 µM; TGI (SK-MEL-2 melanoma): 3.68 µM; GI50 (ACHN renal): 0.5 µM; TGI (ACHN renal): 8.07 µM; GI50 (SW-620 colon): 0.444 µM; TGI (SW-620 colon): 16.1 µM; GI50 (OVCAR-5 ovarian): 0.515 µM; TGI (OVCAR-5 ovarian): 13.8 µM; GI50 (UACC-257 melanoma): 4.69 µM; TGI (UACC-257 melanoma): 23.1 µM; GI50 (NCI-H522 lung): 0.208 µM; TGI (NCI-H522 lung): 0.519 µM; GI50 (HCC-2998 colon): 0.86 µM; TGI (HCC-2998 colon): 3.67 µM; GI50 (BT-549 breast): 0.415 µM; TGI (BT-549 breast): 3.74 µM; GI50 (NCI-H23 lung): 0.378 µM; TGI (NCI-H23 lung): 12.7 µM; GI50 (HOP-62 NSCLC): 0.87 µM; TGI (HOP-62 NSCLC): 19.2 µM; GI50 (HCT-15 colon): 0.354 µM; TGI (HCT-15 colon): 5.3 µM; GI50 (SR leukemia): 0.49 µM; TGI (SR leukemia): 3.23 µM; GI50 (K-562 leukemia): 0.371 µM; TGI (K-562 leukemia): 17.9 µM; GI50 (SK-MEL-5 melanoma): 0.472 µM; TGI (SK-MEL-5 melanoma): 1.69 µM; GI50 (MCF7 breast): 0.332 µM; TGI (MCF7 breast): 6.66 µM; GI50 (U251 CNS): 0.419 µM; TGI (U251 CNS): 10.3 µM; GI50 (UO-31 renal): 2.05 µM; TGI (UO-31 renal): 16.2 µM; GI50 (M14 melanoma): 3.33 µM; TGI (M14 melanoma): 22.8 µM; GI50 (SK-OV-3 ovarian): 0.493 µM; TGI (SK-OV-3 ovarian): 16.8 µM; GI50 (HCT-116 colon): 0.393 µM; TGI (HCT-116 colon): 3.55 µM; GI50 (SN12C renal): 0.417 µM; TGI (SN12C renal): 2.87 µM; GI50 (A549 NSCLC): 0.987 µM; TGI (A549 NSCLC): 16.2 µM; GI50 (SK-MEL-28 melanoma): 1.96 µM; TGI (SK-MEL-28 melanoma): 18 µM; GI50 (SF-539 CNS): 0.24 µM; TGI (SF-539 CNS): 0.536 µM; GI50 (MDA-MB-468 breast): 0.318 µM; TGI (MDA-MB-468 breast): 2.66 µM; GI50 (SF-268 CNS): 0.654 µM; TGI (SF-268 CNS): 12.7 µM; GI50 (SNB-19 CNS): 0.577 µM; TGI (SNB-19 CNS): 14.6 µM; GI50 (MALME-3M melanoma): 2.58 µM; TGI (MALME-3M melanoma): 22.4 µM; GI50 (HS 578T breast): 0.41 µM; TGI (HS 578T breast): 1.29 µM; GI50 (NCI-H226 lung): 2.95 µM; TGI (NCI-H226 lung): 22.4 µM; GI50 (MDA-MB-231 breast): 0.323 µM; TGI (MDA-MB-231 breast): 0.79 µM; GI50 (RPMI-8226 leukemia): 0.442 µM; TGI (RPMI-8226 leukemia): > 22.2 µM; GI50 (IGROV1 ovarian): 0.617 µM; TGI (IGROV1 ovarian): 17.8 µM; GI50 (HOP-92 NSCLC): 2.75 µM; TGI (HOP-92 NSCLC): 11.2 µM; GI50 (LOX IMVI melanoma): 0.356 µM; TGI (LOX IMVI melanoma): 3.22 µM; GI50 (SNB-75 CNS): 3.13 µM; TGI (SNB-75 CNS): 20 µM; GI50 (T-47D breast): 2.67 µM; TGI (T-47D breast): 26.5 µM; GI50 (SF-295 CNS): 0.611 µM; TGI (SF-295 CNS): 2.9 µM; GI50 (RXF 393 renal): 0.414 µM; TGI (RXF 393 renal): 2.18 µM; GI50 (KM12 colon): 0.355 µM; TGI (KM12 colon): 4.51 µM; GI50 (EKVX NSCLC): 3.44 µM; TGI (EKVX NSCLC): 15.2 µM; GI50 (HT29 colon): 1.92 µM; TGI (HT29 colon): 7.02 µM; GI50 (NCI-H460 lung): 0.342 µM; TGI (NCI-H460 lung): 1.27 µM; GI50 (MDA-MB-435): 0.248 µM; TGI (MDA-MB-435): 0.602 µM; GI50 (A498 renal): 8.21 µM; TGI (A498 renal): 21.9 µM; GI50 (CAKI-1 renal): 0.969 µM; TGI (CAKI-1 renal): 15.5 µM; GI50 (OVCAR-3 ovarian): 0.275 µM; TGI (OVCAR-3 ovarian): 0.873 µM; GI50 (OVCAR-8 ovarian): 0.363 µM; TGI (OVCAR-8 ovarian): 0.9 µM; GI50 (NCI/ADR-RES ovarian): 0.292 µM; TGI (NCI/ADR-RES ovarian): 0.592 µM; GI50 (TK-10 renal): 4.56 µM; TGI (TK-10 renal): 19.6 µM; GI50 (UACC-62 melanoma): 0.527 µM; TGI (UACC-62 melanoma): 15.1 µM; GI50 (DU-145 prostate): 0.366 µM; TGI (DU-145 prostate): 3.85 µM; GI50 (PC-3 prostate): 0.569 µM; TGI (PC-3 prostate): 14.1 µM; GI50 (OVCAR-4 ovarian): 3.56 µM; TGI (OVCAR-4 ovarian): 20.8 µM; GI50 (HL-60(TB) leukemia): 0.257 µM; TGI (HL-60(TB) leukemia): 0.713 µM; GI50 (786-0 renal): 1.55 µM; TGI (786-0 renal): 8.43 µM
